Data: patent publication US20190127366A1 (LifeSci Pharmaceuticals, Inc., priority 2015, published 2019)
pIC50: −log10 of the molar value.

Target: T1, human complement factor D (Homo sapiens, UniProt P00746)
T1 construct: purchased R&D Systems 1824-SE
Assay: In vitro enzyme inhibition (Z-Lys-SBzl/DTNB absorbance assay)
Type: biochemical
Conditions: Complement Factor D (R&D Systems), substrate Z-Lys-SBzl, A405 nm; read-out: CFD IC50
Procedure: The ability of the compounds disclosed herein to inhibit human complement factor D inhibitory activity was quantified according to the 12-step protocol provided below. • 1. Prepare assay buffer: 50 mM Tris/HCl, pH 7.5, 1 M NaCl. • 2. Dilute 10 mM Complement Factor D inhibitor Nafamostat Mesilate (Selleckchem, Catalog #S1386) solution from 10000 μM to 9.77 μM in 100% DMSO, 8 concentrations. Then dilute the serial concentrations of Nafamostat Mesilate 20-fold in assay buffer. • 3. Add 10 μl diluted Nafamostat Mesilate duplicated into each of the inhibitor control well of a 96-well plate (Corning, Catalog #3599). Final concentrations were 50 μM, 25 μM, 12.5 μM, 6.25 μM, 3.125 μM, 0.781 μM, 0.195 μM and 0.049 μM. 0.5% DMSO was in each well finally. • 4. Dilute 20 mM test compounds from 10000 μM to […] in 100% DMSO, 6-fold dilution, 8 concentrations. Then dilute the serial concentrations of test compounds 20-fold in assay buffer. • 5. Add 10 μl diluted test compounds duplicated into the 96-well plate. Final concentrations were 50 μM, 8.33 μM, 1.39 μM, 0.23 μM, 0.0386 μM, 0.0064 μM, 0.0011 μM and 0.0002 μM. 0.5% DMSO was in each well finally. • 6. Dilute 20 mM substrate Z-Lys-SBzl (Bachem, Cat #M-1300) to 200 μM in assay buffer with 200 μM DTNB(Sigma, Catalog #D8130). • 7. Dilute 738 ng/μL Complement Factor D (R&D Systems, Catalog #1824-SE) to 6.25 ng/μL in assay buffer. Add 40 μl diluted Complement Factor D in the 96-well plate. • 8. Positive control well contains Complement Factor D without test compound. Negative control well contains neither Complement Factor D nor test compound. Using assay buffer, bring the total volume of all controls to 50 μl. • 9. Pre-incubate the plate for 5 min at room temperature. • 10. Add 50 μl of diluted substrate/DTNB mixture into each well. Mix the reagents completely by shaking the plate gently for 30 sec. • 11. For kinetic reading: Immediately start measuring absorbance (A405 nm) continuously and record data every 30sec for 60 min. • 12. Data analysis • Inhibition activity of compound was evaluated by IC50. IC50 was calculated according the dose-response curve of compound fitted using GraphPadPrism with “log(inhibitor)-response (variable slope)” equation. • % inhibition was calculated by using following equation:
[formula] • Mean(NC): The average value of the negative control wells' A405 nm values. • Mean(PC): The average value of the positive control wells' A405 nm values.
The ability of the compounds in Table 2 to inhibit human complement factor D inhibitory activity was determined.

T1 sequence (P00746 26-253): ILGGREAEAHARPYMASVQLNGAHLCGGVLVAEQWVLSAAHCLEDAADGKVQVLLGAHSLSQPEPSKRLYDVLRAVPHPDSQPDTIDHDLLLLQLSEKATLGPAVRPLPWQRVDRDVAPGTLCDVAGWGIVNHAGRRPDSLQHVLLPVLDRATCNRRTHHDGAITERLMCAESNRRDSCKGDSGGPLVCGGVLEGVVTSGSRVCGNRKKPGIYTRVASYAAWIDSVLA

SMILES	pIC50
NC(=O)c1nn(CC(=O)N2[C@H](C(=O)Nc3ccnc(Cl)c3)C[C@@H]3CCC[C@@H]32)c2ccccc12 [Example 163, 1-(2-((2S,3aS,6aS)-2-((2-chloropyridin-4-yl)carbamoyl)hexahydrocyclopenta[b]pyrrol-1(2H)-yl)-2-oxoethyl)-1H-indazole-3-carboxamide]	< 5.00
NC(=O)c1nn(CC(=O)N2[C@@H]3CC[C@@H](C3)[C@H]2C(=O)Nc2cccc(-c3ccccc3F)n2)c2ccccc12 [Example 46, 1-(2-((1R,3S,4S)-3-((6-(2-fluorophenyl)pyridin-2-yl)carbamoyl)-2-azabicyclo[2.2.1]heptan-2-yl)-2-oxoethyl)-1H-indazole-3-carboxamide]	< 5.00
NC(=O)c1nn(CC(=O)N2[C@@H]3CC[C@@H](C3)[C@H]2C(=O)Nc2cccc(Cl)c2F)c2cnccc12 [Example 36, 1-(2-((1R,3S,4S)-3-((3-chloro-2-fluorophenyl)carbamoyl)-2-azabicyclo[2.2.1]heptan-2-yl)-2-oxoethyl)-1H-pyrazolo[3,4-c]pyridine-3-carboxamide]	5.00 to 6.00
NC(=O)c1nn(CC(=O)N2CC[C@H]2C(=O)NCc2cccc(Cl)c2F)cc1Br [Example 187, (S)-4-bromo-1-(2-(2-((3-chloro-2-fluorobenzyl)carbamoyl)azetidin-1-yl)-2-oxoethyl)-1H-pyrazole-3-carboxamide]	5.00 to 6.00
CC(O)c1nn(CC(=O)N2[C@@H]3CC[C@@H](C3)[C@H]2C(=O)Nc2cccc(Cl)n2)c2ccccc12 (stereo partly drawn) [Example 85, (1R,3S,4S)-N-(6-chloropyridin-2-yl)-2-(2-(3-(1-hydroxyethyl)-1H-indazol-1-yl)acetyl)-2-azabicyclo[2.2.1]heptane-3-carboxamide]	< 5.00
NC(=O)c1nn(CC(=O)N2[C@@H]3CC[C@@H](C3)[C@H]2C(=O)Nc2ccc(CO)c(Cl)n2)c2ccccc12 [Example 108, 1-(2-((1R,3S,4S)-3-((6-chloro-5-(hydroxymethyl)pyridin-2-yl)carbamoyl)-2-azabicyclo[2.2.1]heptan-2-yl)-2-oxoethyl)-1H-indazole-3-carboxamide]	5.00 to 6.00
COC(=O)CC(NC(=O)[C@@H]1[C@H]2CC[C@H](C2)N1C(=O)Cn1nc(C(N)=O)c2ccccc21)c1cccc(Cl)c1F (stereo partly drawn) [Example 142, methyl 3-((1R,3S,4S)-2-(2-(3-carbamoyl-1H-indazol-1-yl)acetyl)-2-azabicyclo[2.2.1]heptane-3-carboxamido)-3-(3-chloro-2-fluorophenyl)propanoate]	5.00 to 6.00
NC(=O)c1nn(CC(=O)N2[C@@H]3CC[C@@H](C3)[C@H]2C(=O)Nc2cccc(Cl)n2)c2ccc([N+](=O)[O-])cc12 [Example 73, 1-(2-((1R,3S,4S)-3-((6-chloropyridin-2-yl)carbamoyl)-2-azabicyclo[2.2.1]heptan-2-yl)-2-oxoethyl)-5-nitro-1H-indazole-3-carboxamide]	5.00 to 6.00
NC(=O)c1nn(CC(=O)N2CC3CC2(C(=O)Nc2cccc(Cl)n2)C3)c2ccccc12 [Example 151, 2-(2-(3-carbamoyl-1H-indazol-1-yl)acetyl)-N-(6-chloropyridin-2-yl)-2-azabicyclo[2.1.1]hexane-1-carboxamide]	5.00 to 6.00
NC(=O)c1nn(CC(=O)N2[C@H]3CC[C@H](C3)[C@@H]2C(=O)Nc2cccc(C(F)(F)F)n2)c2ccccc12 [Example 17, 1-(2-oxo-2-((1S,3R,4R)-3-((6-(trifluoromethyl)pyridin-2-yl)carbamoyl)-2-azabicyclo[2.2.1]heptan-2-yl)ethyl)-1H-indazole-3-carboxamide]	5.00 to 6.00
N#Cc1cc(Cl)c(F)c(CNC(=O)[C@@H]2[C@H]3CC[C@H](C3)N2C(=O)Cn2nc(C(N)=O)c3ccccc32)c1 [Example 113, 1-(2-((1R,3S,4S)-3-((3-chloro-5-cyano-2-fluorobenzyl)carbamoyl)-2-azabicyclo[2.2.1]heptan-2-yl)-2-oxoethyl)-1H-indazole-3-carboxamide]	5.00 to 6.00

Now from value to compound:

pIC50	SMILES
5.00 to 6.00	NC(=O)c1nn(CC(=O)N2[C@@H]3CC[C@@H](C3)[C@H]2C(=O)Nc2cccc(C3CC3)n2)c2cc(C3CC3)ccc12 [Example 5, 6-cyclopropyl-1-(2-((1R,3S,4S)-3-((6-cyclopropylpyridin-2-yl)carbamoyl)-2-azabicyclo[2.2.1]heptan-2-yl)-2-oxoethyl)-1H-indazole-3-carboxamide]
5.00 to 6.00	NC(=O)c1nn(CC(=O)N2[C@@H]3CC[C@@H](C3)[C@H]2C(=O)Nc2cnc3ccccc3n2)c2ccccc12 [Example 45, 1-(2-oxo-2-((1R,3S,4S)-3-(quinoxalin-2-ylcarbamoyl)-2-azabicyclo[2.2.1]heptan-2-yl)ethyl)-1H-indazole-3-carboxamide]
5.00 to 6.00	NC(=O)c1nn(CC(=O)N2[C@@H]3CC[C@@H](C3)[C@H]2C(=O)Nc2cccc(C3CC3)n2)c2ccccc12 [Example 3, 1-(2-((1R,3S,4S)-3-((6-cyclopropylpyridin-2-yl)carbamoyl)-2-azabicyclo[2.2.1]heptan-2-yl)-2-oxoethyl)-1H-indazole-3-carboxamide]
5.00 to 6.00	COC(=O)Cc1ccc2c(C(N)=O)nn(CC(=O)N3[C@@H]4CC[C@@H](C4)[C@H]3C(=O)NCc3cccc(Cl)c3F)c2c1 [Example 126, methyl 2-(3-carbamoyl-1-(2-((1R,3S,4S)-3-((3-chloro-2-fluorobenzyl)carbamoyl)-2-azabicyclo[2.2.1]heptan-2-yl)-2-oxoethyl)-1H-indazol-6-yl)acetate]
6.00 to 7.00	NC(=O)c1nc(CC(=O)N2CC[C@H]2C(=O)NCc2cccc(Cl)c2F)n2ccccc12 [Example 191, (S)-3-(2-(2-((3-chloro-2-fluorobenzyl)carbamoyl)azetidin-1-yl)-2-oxoethyl)imidazo[1,5-a]pyridine-1-carboxamide]
5.00 to 6.00	NCCC(NC(=O)[C@@H]1[C@H]2CC[C@H](C2)N1C(=O)Cn1nc(C(N)=O)c2ccccc21)c1cccc(Cl)c1F (stereo partly drawn) [Example 145, 1-(2-((1R,3S,4S)-3-((3-amino-1-(3-chloro-2-fluorophenyl)propyl)carbamoyl)-2-azabicyclo[2.2.1]heptan-2-yl)-2-oxoethyl)-1H-indazole-3-carboxamide]
6.00 to 7.00	NC(=O)n1cc(CC(=O)N2CC[C@H]2C(=O)NCc2cccc(Cl)c2F)c2ccccc21 [Example 186, (S)-3-(2-(2-((3-chloro-2-fluorobenzyl)carbamoyl)azetidin-1-yl)-2-oxoethyl)-1H-indole-1-carboxamide]
6.00 to 7.00	N#Cc1ccc2c(c1)c(C(N)=O)nn2CC(=O)N1[C@@H]2CC[C@@H](C2)[C@H]1C(=O)Nc1cccc(Cl)n1 [Example 81, 1-(2-((1R,3S,4S)-3-((6-chloropyridin-2-yl)carbamoyl)-2-azabicyclo[2.2.1]heptan-2-yl)-2-oxoethyl)-5-cyano-1H-indazole-3-carboxamide]
6.00 to 7.00	CC(=O)c1nn(CC(=O)N2[C@@H]3CC[C@@H](C3)[C@H]2C(=O)Nc2cccc(Cl)n2)c2ccc(C)cc12 [Example 83, (1R,3S,4S)-2-(2-(3-acetyl-5-methyl-1H-indazol-1-yl)acetyl)-N-(6-chloropyridin-2-yl)-2-azabicyclo[2.2.1]heptane-3-carboxamide]
6.00 to 7.00	COC(=O)c1cc(Cl)nc(NC(=O)[C@@H]2[C@H]3CC[C@H](C3)N2C(=O)Cn2nc(C(N)=O)c3ccccc32)c1 [Example 103, methyl 2-((1R,3S,4S)-2-(2-(3-carbamoyl-1H-indazol-1-yl)acetyl)-2-azabicyclo[2.2.1]heptane-3-carboxamido)-6-chloroisonicotinate]
6.00 to 7.00	NC(=O)c1nn(CC(=O)N2[C@@H]3CC[C@@H](C3)[C@H]2C(=O)NCc2cccc(Cl)c2F)c2cnccc12 [Example 39, 1-(2-((1R,3S,4S)-3-((3-chloro-2-fluorobenzyl)carbamoyl)-2-azabicyclo[2.2.1]heptan-2-yl)-2-oxoethyl)-1H-pyrazolo[3,4-c]pyridine-3-carboxamide]
6.00 to 7.00	NC(=O)c1nn(CC(=O)N2[C@@H]3CC[C@@H](C3)[C@H]2C(=O)NCc2cc(F)cc(Cl)c2)c2ccccc12 [Example 64, 1-(2-((1R,3S,4S)-3-((3-chloro-5-fluorobenzyl)carbamoyl)-2-azabicyclo[2.2.1]heptan-2-yl)-2-oxoethyl)-1H-indazole-3-carboxamide 2,2,2-trifluoroacetate]
